Several values for one entry are separate records, joined by “and”; a condition that tells them apart may be missing. Equal values may be shown once. Read-outs that look alike come from different tables or passages of the source.
What was measured:
Format in all cases: cell-based
AGS cells = test: 3D cell proliferation assay (CellTiter-Glo 3D), AGS; conditions: 5 days, read-out: 3D Proliferation Inhibition AGS_IC50
Experimental: (§1) Using a nanoliter liquid handling system (LABCYTE, P-0200), the diluted test compounds were added to a 384-well low-adsorption cell culture plate. Cells were seeded into the wells, and the plate was placed in an incubator at 37° C. with 5% CO2. After co-incubating the compounds and cells for 5 days, CellTiter-Glo® 3D reagent was added. Luminescence values were measured using an EnVision Multilabel Plate Reader (luminescence is proportional to the ATP content in the system, and ATP content directly reflects the number of viable cells). Finally, the IC50 values (half-maximal inhibitory concentrations) of the compounds were determined using non-linear fitting equations in XLFit software with the following parameters: […]
(§2) X: Logarithm of compound concentration • Y: Inhibition rate (%)
(§3) [formula] • Negative control: DMSO • Positive control: Medium only

AsPC-1 cells = test: 3D cell proliferation assay (CellTiter-Glo 3D), AsPC-1; conditions: 5 days, read-out: 3D Proliferation Inhibition AsPC-1_IC50
Experimental: as §1, §2, §3

pERK in AsPC-1 cells = test: ERK phosphorylation cell assay, AsPC-1; conditions: read-out: pERK AsPC-1_IC50
Experimental: [Worded in the source for another cell line; this cell line is reported under the same test.] (§4) • Day 1: AGS cells were seeded into a 384-well cell culture plate and incubated overnight at 37° C. with 5% CO2 in a cell culture incubator. • Day 2: Compounds were added to the plate using an Echo550 liquid handler, followed by incubation at 37° C. with 5% CO2 in a cell culture incubator for 3 hours. Subsequently, the cells were fixed with paraformaldehyde, permeabilized with methanol, and blocked with blocking buffer. A primary antibody mixture (rabbit anti-pERK, mouse anti-GAPDH) was added, and the plate was incubated overnight at 4° C. • Day 3: The primary antibodies were removed, and a secondary antibody mixture (goat anti-rabbit 800CW, goat anti-mouse 680RD) was added. The plate was incubated at room temperature in the dark. After three washes with PBST, the plate was inverted and centrifuged for 1 minute. Fluorescence signal values were read using an Odyssey CLx imaging system.
(§5) [formula] • Negative control: DMSO • Positive control: 10 μM Reference • Fitted using XLFit 5.0 with the following parameters:
(§6) [formula] • X: Log of compound concentration • Y: Mean relative expression levels of p-ERK across replicates

pERK in AGS cells = test: ERK phosphorylation cell assay, AGS; conditions: 3 hours compound incubation, read-out: pERK AGS_IC50
Experimental: as §4, §5, §6

[1] = Homo sapiens, ASPC1, AsPC-1 cells

Compound	IC50 (pERK in AsPC-1 cells; AsPC-1 cells) [nM]	IC50 (pERK in AGS cells) [nM]	IC50 (AGS cells; Homo sapiens, AGS, 120 h) [nM]	IC50 (AsPC-1 cells; Homo sapiens, ASPC1, 120 h) [nM]	IC50 (pERK in AsPC-1 cells; [1]) [nM]	IC50 (pERK in AGS cells; Homo sapiens, AGS, 3 h) [nM]	other results
CN(C)CC1(COc2nc(N3CCC[C@@](C)(O)C3)c3cc4c(c(F)c3n2)-c2cc(O)cc3ccc(F)c(c23)CCCCCN4)CC1 [Example 27]			314	1000	338	99	
C[C@@]1(O)CCCN(c2nc(OC[C@@]34CCCN3C[C@H](F)C4)nc3c(F)c4c(cc23)NCCCCCc2c(F)ccc3cc(O)cc-4c23)C1 [Example 16, 3,15-difluoro-13-(((2R,7aS)-2-fluorotetrahydro-1H-pyrrolidin-7a(5H)-yl)methoxy)-11-((R)-3-hydroxy-3-methylpiperidin-1-yl)-4,5,6,7,8,9-hexahydronaphthol[1′,8′:4,5,6][1]azacycloundecane [2,3-g]quinazolin-17-ol]			83	288	102	31	
[2H]C([2H])([2H])N1CCOCCc2c(F)ccc3cc(O)cc(c23)-c2c1cc1c(N3CCC[C@@](C)(O)C3)nc(OC[C@@]34CCCN3C[C@H](F)C4)nc1c2F [Example 46, 3,15-difluoro-13-(((2R,7aS)-2-fluorotetrahydro-1H-pyrazin-7a(5H)-yl)methoxy)-11-((R)-3-hydroxy-3-methylpiperidin-1-yl)-9-(trideuteromethyl)-4,5,8,9-tetrahydro-7H-naphtho[1′,8′:7,8,9][1]oxa[4]azacycloundeca[5,6-g]quinazoline-17-ol]			12	30	11	5.8	
C=C1CN2C[C@H](F)C[C@]2(COc2nc(N3CCC[C@@](C)(O)C3)c3cc4c(c(F)c3n2)-c2cc(O)cc3ccc(F)c(c23)CCOCCN4C)C1 [Example 49]			83	112	17	20	
C=C1CN2CCC[C@@]2(COc2nc(N3CCC[C@@](C)(O)C3)c3cc4c(c(F)c3n2)-c2cc(O)cc3ccc(F)c(c23)CCOCCN4)C1 (single isomer, unassigned) [Example 42D]	12	2.2					IC50 (AGS cells): 5.9 nM; IC50 (AsPC-1 cells): 39 nM
CN(C)C1CN(c2nc(N3CCC[C@@](C)(O)C3)c3cc4c(c(F)c3n2)-c2cc(O)cc3ccc(F)c(c23)CCCCCN4)C1 [Example 39, (R)-13-(3-(dimethylamino)azetidinyl)-3,15-difluoro-11-(3-hydroxy-3-methylpiperidin-1-yl)-4,5,6,7,8,9-hexahydro-naphtho[1′,8′:4,5,6][1]azacycloundecino[2,3-g]quinazoline-17-ol]			6390	> 10000	> 10000	> 10000	
CN1CCCCCc2c(F)ccc3cc(O)cc(c23)-c2c1cc1c(N3CCC[C@@](C)(O)C3)nc(OC[C@@]34CCCN3C[C@H](F)C4)nc1c2F (single isomer, unassigned) [Example 6B]		450					IC50 (AGS cells): 1040 nM; IC50 (AsPC-1 cells): 1370 nM
C=C1CN2CCCC2(COc2nc(N3CCC[C@@](C)(O)C3)c3cc4c(c(F)c3n2)-c2cc(O)cc3ccc(F)c(c23)CCCCCN4S(C)(=O)=O)C1 (stereo partly drawn) [Example 45, 3,15-difluoro-11-((R)-3-hydroxy-3-methylpiperidin-1-yl)-13-((2-methylenetetrahydro-1H-pyrazin-7a(5H)-yl)methoxy)-9-(methylsulfonyl)-4,5,6,7,8,9-hexahydronaphtho[1′,8′:4,5,6][1]azacycloundecano[2,3-g]quinazolin-17-ol]			3210	4090		3390	
C=C1CN2CCCC2(COc2nc(N3CCC[C@@](C)(O)C3)c3cc4c(c(F)c3n2)-c2cc(O)cc3ccc(F)c(c23)CCCCCN4)C1 (some centres unmarked) [Example 25]			112	336			
13-((2,2-difluoro-6-methylenetetrahydro-1H-pyrazin-7a(5H)-yl)methoxy)-3,15-difluoro-11-((R)-3-hydroxy-3-methylpiperidin-1-yl)-4,5,6,7,8,9-hexahydronaphtho[1′,8′:4,5,6][1]azacycloundecano[2,3-g]quinazolin-17-ol [Example 38]	> 10000	> 10000					
C[C@@]1(O)CCCN(c2nc(OCC34CCCN3CCC4)nc3c(F)c4c(cc23)NCCCCCc2c(F)ccc3cccc-4c23)C1 [Example 7, (R)-1-(3,15-Difluoro-13-((tetrahydro-1H-pyrazin-7a(5H)-yl)methoxy)-4,5,6,7,8,9-hexahydronaphtho[1′,8′:4,5,6]azecino[2,3-g]quinazolin-11-yl)-3-methylpiperidin-3-ol]			2290	2860		3470	
C[C@@]1(O)CCCN(c2nc(OCC(F)(F)F)nc3c(F)c4c(cc23)NCCCCCc2c(F)ccc3cc(O)cc-4c23)C1 [Example 17A, (R)-3,15-difluoro-11-(3-hydroxy-3-methylpiperidin-1-yl)-13-(2,2,2-trifluoroethoxy)-4,5,6,7,8,9-hexahydro-naphtho[1′,8′:4,5,6111]azacycloundecino[2,3-g]quinazoline-17-ol]					> 10000	5270	
C=C1CN2CCCC2(COc2nc(N3CCC[C@@](C)(O)C3)c3cc4c(c(F)c3n2)-c2cc(O)cc3ccc(F)c(c23)CCCCCN4C(C)=O)C1 (stereo partly drawn) [Example 44, 1-(3,15-Difluoro-17-hydroxy-11-((R)-3-hydroxy-3-methylpiperidin-1-yl)-13-((2-methylene-tetrahydro-1H-pyrazin-7a(5H)-yl)methoxy)-5,6,7,8-tetrahydronaphtho[1′,8′:4,5,6][1]azacycloundecino[2,3-g]quinazolin-9(4H)-yl)ethan-1-one]				3900			IC50 (AGS cells; Homo sapiens, 120 h): 1860 nM; IC50 (pERK in AGS cells; Homo sapiens): 490 nM
O=C1CCCc2c(F)ccc3cc(O)cc(c23)-c2c(cc3c(N4CC5CCC(C4)N5)nc(OC[C@@]45CCCN4C[C@H](F)C5)nc3c2F)N1 [Example 1, 10-((1R,5S)-3,8-Diazabicyclo[3.2.1]octan-3-yl)-3,14-difluoro-12-(((2R,7aS)-2-fluorotetrahydro-1H-pyrazin-7a(5H)-yl)methoxy)-16-hydroxy-5,6-dihydro-4H-naphtho[1′,8′:4,5,6]acridin[2,3-g]quinazolin-7(8H)-one]					2450	2150	
CN1CCCCCc2c(F)ccc3cc(O)cc(c23)-c2c1cc1c(N3CCC[C@@](C)(O)C3)nc(OC[C@@]34CCCN3C[C@H](F)C4)nc1c2F (single isomer, unassigned) [Example 6A]		30					IC50 (AGS cells): 127 nM; IC50 (AsPC-1 cells): 202 nM
O=C1CCCCc2c(F)ccc3cc(O)cc(c23)-c2c(cc3c(N4CC5CCC(C4)N5)nc(OC[C@@]45CCCN4C[C@H](F)C5)nc3c2F)N1 [Example 4]			848	4870		331	

Further lines, with some results ahead:

IC50 (pERK in AsPC-1 cells; AsPC-1 cells) [nM]	IC50 (pERK in AGS cells) [nM]	IC50 (AGS cells; Homo sapiens, AGS, 120 h) [nM]	IC50 (AsPC-1 cells; Homo sapiens, ASPC1, 120 h) [nM]	IC50 (pERK in AsPC-1 cells; [1]) [nM]	IC50 (pERK in AGS cells; Homo sapiens, AGS, 3 h) [nM]	Compound	other results
> 10000	> 10000					C[C@@]1(O)CCCN(c2nc(OCC3(N4CCOCC4)CC3)nc3c(F)c4c(cc23)NCCCCCc2c(F)ccc3cc(O)cc-4c23)C1 (single isomer, unassigned) [Example 33B]	IC50 (AGS cells): 3080 nM; IC50 (AsPC-1 cells): 4670 nM
776	194					CN1CCC[C@H]1COc1nc(N2CCC[C@@](C)(O)C2)c2cc3c(c(F)c2n1)-c1cc(O)cc2ccc(F)c(c12)CCCCCN3 (single isomer, unassigned) [Example 28A]	IC50 (AGS cells): 430 nM; IC50 (AsPC-1 cells): 1760 nM
15	4.6					3,15-difluoro-13-((2R,7aS)-2-fluorotetrahydro-1H-pyrazin-7a(5H)-yl)methoxy)-11-((R)-3-hydroxy-3-methylpiperidin-1-yl)-4,5,8,9-tetrahydro-7H-naphtho[1′,8′:7,8,9][1]oxa[4]azacycloundeca[5,6-g]quinazoline-17-ol [Example 43A]	IC50 (AGS cells): 22 nM and 24 nM; IC50 (AsPC-1 cells): 60 nM and 55 nM
7180	1920					C[C@@]1(O)CCCN(c2nc(OCC34CCCN3C[C@]3(C4)CC3(F)F)nc3c(F)c4c(cc23)NCCCCCc2c(F)ccc3cc(O)cc-4c23)C1 (single isomer, unassigned) [Example 24B]	
4620	517					C[C@@]1(O)CCCN(c2nc(OCC34CCCN3CCC4)nc3c(F)c4c(cc23)NCCCCCc2c(F)ccc3cc(O)cc-4c23)C1 (single isomer, unassigned) [Example 21B]	
	1140			> 10000		C=C1CN2CC(F)(F)CC2(COc2nc(N3CCC[C@@](C)(O)C3)c3cc4c(c(F)c3n2)-c2cc(O)cc3ccc(F)c(c23)CCCCCN4)C1 (single isomer, unassigned) [Example 57A]	

From patent US20260049089A1, “KRAS INHIBITOR COMPOUND” (SHANGHAI APEIRON THERAPEUTICS COMPANY LIMITED, priority 2022, published 2026)
